In patent publication US10653688B2, “6-(6-membered heteroaryl and aryl)isoquinolin-3-yl carboxamides and preparation and use thereof” (Samumed, LLC, priority 2017, dated 2020):
Read-outs that look alike come from different tables or passages of the source.

What was measured:
[1] = biological target: recombinant GSK3β kinase (Homo sapiens (Human), UniProt P49841); test: GSK3β kinase assay (Ser/Thr 09 peptide Z-lyte, FRET); format: biochemical;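 also: FRET read-out as coumarin over fluorescein emission ratio, compounds incubated one hour at room temperature, IC50 from dose-response curve fit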
[2] = tested on: LL29 cells (primary human fibroblasts derived from IPF patients), α-smooth muscle actin; test: Inhibition of fibrotic process: TGF-β1-treated primary human fibroblasts, αSMA staining; format: cell-based; conditions: Homo sapiens, Fibroblast; for EC50: 96 h, TGF-β1 20 ng/mL, 4 days, % cells positive for αSMA; for inhibition at 10 µM: read-out: percent inhibition at 10 μM (given for EC50 >10 μM), TGF-β1, αSMA, 10 μM;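 as to all read-outs here: controls were TGF-β1-stimulated wells with DMSO vehicle as the positive reference and cells given DMSO alone as the negative reference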
[3] = tested on: IL-6 in human peripheral blood mononuclear cells (huPBMCs); test: IL-6 inhibition in LPS-stimulated human peripheral blood mononuclear cells (HTRF); format: cell-based; conditions: Homo sapiens, PBMC; for EC50: LPS 50 ng/mL, 22 hours, IL-6 HTRF; for inhibition at 10 µM: read-out: percent inhibition at 10 μM (given for EC50 >10 μM), LPS, IL-6, 10 μM
Method in brief: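 Compound-treated huPBMCs (1×10e6 cells/mL, 1% FBS-RPMI) were stimulated after 2 h with LPS (50 ng/mL) for another 22 h at 37° C. An anti-IL-6 HTRF pair reported IL-6 as the 665/620 nm ratio; activity relative to DMSO, EC50 by 4-parameter Levenberg-Marquardt fitting, duplicates.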

[4] = tested on: secreted cytokines TNFα, IL-6 and KC-GRO in BV-2 cells (mouse microglial cells); test: Secreted cytokines in lipopolysaccharide-stimulated mouse glial cell line; format: cell-based; conditions: LPS 250 ng/mL 5 hours, table does not say which cytokine
Method in brief: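 BV-2 cells seeded at 35,000/well were pretreated overnight with compound (10 μM to 4.6 nM final), then stimulated 5 h with 250 ng/mL E. coli O111:B4 LPS. Supernatant TNFα, IL-6 and KC-GRO were quantified by electrochemiluminescence against standard curves (pg/mL) to fit EC50. Cytotoxicity was checked by CellTiter-Glo ATP read-out.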

[5] = tested on: Wnt activity (SW480 colon carcinoma cells stably expressing the Sp5-Luc reporter gene); test: Wnt activity screening assay (Sp5-Luc reporter gene assay); format: cell-based, human; conditions: Homo sapiens; for EC50: 36 to 48 hours; for inhibition at 10 µM: read-out: percent inhibition at 10 μM (given for EC50 >10 μM), 10 μM
Method in brief: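 EC50 values come from a variable-slope four-parameter fit of luminescence normalized to DMSO-only wells. The read-out follows 36–48 h incubation at 37 °C, 5% CO2, in DMEM containing 1% fetal bovine serum. Cells are hygromycin-selected SW480 stably expressing firefly luciferase under a Wnt-responsive Sp5 promoter (eight TCF/LEF sites).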

[6] = GSK3β kinase, head says EC50, method says IC50, ATP 46 μM

Chain of recombinant GSK3β kinase (P49841 whole entry): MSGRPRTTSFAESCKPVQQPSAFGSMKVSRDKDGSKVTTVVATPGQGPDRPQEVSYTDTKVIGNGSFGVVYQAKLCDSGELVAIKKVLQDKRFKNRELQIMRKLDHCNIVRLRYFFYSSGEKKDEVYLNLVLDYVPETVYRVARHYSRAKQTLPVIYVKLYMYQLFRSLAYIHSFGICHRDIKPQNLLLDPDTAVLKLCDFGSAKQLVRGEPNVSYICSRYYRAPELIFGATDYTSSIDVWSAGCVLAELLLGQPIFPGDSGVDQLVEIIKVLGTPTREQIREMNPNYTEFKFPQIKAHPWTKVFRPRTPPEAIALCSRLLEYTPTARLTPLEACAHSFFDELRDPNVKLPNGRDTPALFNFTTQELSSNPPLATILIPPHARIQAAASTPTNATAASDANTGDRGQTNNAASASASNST

SMILES | EC50 [1, 6] [nM] | EC50 [3] [nM] | EC50 [4] [nM] | EC50 [5] [nM] | EC50 [1] [nM] | EC50 [2] [nM] | inhibition at 10 µM [5] [%] | inhibition at 10 µM [2] [%] | inhibition at 10 µM [3] [%]
[2H]c1nc([2H])c(-c2ccc3cnc(NC(=O)CN4CCN(C)CC4)cc3c2)c([2H])c1[2H] [Compound 61, 2-(4-Methylpiperazin-1-yl)-N-(6-(pyridin-3-yl-d4)isoquinolin-3-yl)acetamide] | – | > 10000 | 86 | > 10000 | 1030 | > 10000 | 19.6 | 4.6 | 26.4
O=C(Nc1cc2cc(-c3cnccn3)ccc2cn1)[C@H]1CC[C@H](CN2CC(F)C2)CC1 [Compound 72, trans-4-((3-Fluoroazetidin-1-yl)methyl)-N-(6-(pyrazin-2-yl)isoquinolin-3-yl)cyclohexane-1-carboxamide] | – | > 10000 | 1310 | > 10000 | 1220 | 1830 | 35.7 | – | 10
CN1CCN(C[C@H]2CC[C@H](C(=O)Nc3cc4cc(-c5cnccn5)ccc4cn3)CC2)CC1 [Compound 73, trans-4-((4-Methylpiperazin-1-yl)methyl)-N-(6-(pyrazin-2-yl)isoquinolin-3-yl)cyclohexane-1-carboxamide] | – | 320 | 694 | > 10000 | 828 | > 10000 | 33.3 | 43.1 | –
CN1CCC(C(=O)Nc2cc3cc(-c4cnccn4)ccc3cn2)CC1 [Compound 75, 1-Methyl-N-(6-(pyrazin-2-yl)isoquinolin-3-yl)piperidine-4-carboxamide] | – | > 10000 | 194 | > 10000 | 1390 | 1370 | 33.7 | – | 27.5
O=C(Nc1cc2cc(-c3cnccn3)ccc2cn1)C1CCN(C2COC2)CC1 [Compound 78, 1-(Oxetan-3-yl)-N-(6-(pyrazin-2-yl)isoquinolin-3-yl)piperidine-4-carboxamide] | 804 | > 10000 | 131 | > 10000 | – | 2310 | 28.1 | – | 8.9
CC(C)CN1CCCC(C(=O)Nc2cc3cc(-c4cnccn4)ccc3cn2)CC1 (stereo not drawn) [Compound 81, 1-Isobutyl-N-(6-(pyrazin-2-yl)isoquinolin-3-yl)azepane-4-carboxamide] | 1300 | > 10000 | 1470 | > 10000 | – | 5460 | 3.9 | – | 1.6
CC(C)Nc1cncc(-c2ccc3cnc(NC(=O)C4CCN(C)CC4)cc3c2)n1 [Compound 88, N-(6-(6-(Isopropylamino)pyrazin-2-yl)isoquinolin-3-yl)-1-methylpiperidine-4-carboxamide] | 26 | 400 | 1070 | 68 | – | > 10000 | – | 31.9 | –
O=C(Nc1cc2cc(-c3cncc(NC4CCNCC4)n3)ccc2cn1)C1CCOCC1 [Compound 109, N-(6-(6-(Piperidin-4-ylamino)pyrazin-2-yl)isoquinolin-3-yl)tetrahydro-2H-pyran-4-carboxamide] | 264 | 674 | 211 | 738 | – | 27 | – | – | –
CN1CCN(c2cc(C(=O)Nc3cc4cc(-c5cnc6ocnc6c5)ccc4cn3)ccn2)CC1 [Compound 132, 2-(4-Methylpiperazin-1-yl)-N-(6-(oxazolo[5,4-b]pyridin-6-yl)isoquinolin-3-yl)isonicotinamide] | > 10000 | > 10000 | 6080 | 3150 | – | 1350 | – | – | 8.5
Cc1cc2ncc(-c3ccc4cnc(NC(=O)c5ccnc(N6CCN(C)CC6)c5)cc4c3)cc2[nH]1 [Compound 135, N-(6-(2-Methyl-1H-pyrrolo[3,2-b]pyridin-6-yl)isoquinolin-3-yl)-2-(4-methylpiperazin-1-yl)isonicotinamide] | > 10000 | 2110 | 2240 | 2590 | – | 2480 | – | – | –

The next lines start with results.

EC50 [1, 6] [nM] | EC50 [3] [nM] | EC50 [4] [nM] | EC50 [5] [nM] | EC50 [1] [nM] | SMILES | EC50 [2] [nM] | inhibition at 10 µM [5] [%] | inhibition at 10 µM [2] [%] | inhibition at 10 µM [3] [%]
180 | 3800 | 152 | 1140 | – | O=C(Nc1cc2cc(-c3cncc(CN4CCOCC4)c3)ccc2cn1)C1CC1 [Compound 57, N-(6-(5-(Morpholinomethyl)pyridin-3-yl)isoquinolin-3-yl) cyclopropanecarboxamide] | 2160 | – | – | –
– | 9090 | 3230 | > 10000 | 404 | [2H]c1nc([2H])c(-c2ccc3cnc(NC(=O)CN4CCCC4)cc3c2)c([2H])c1[2H] [Compound 60, N-(6-(pyridin-3-yl-d4)isoquinolin-3-yl)-2-(pyrrolidin-1-yl)acetamide] | 2600 | 41.9 | – | –
– | > 10000 | 307 | > 10000 | 455 | [2H]c1nc([2H])c(-c2ccc3cnc(NC(=O)CN4CCOCC4)cc3c2)c([2H])c1[2H] [Compound 62, 2-Morpholino-N-(6-(pyridin-3-yl-d4)isoquinolin-3-yl)acetamide] | > 10000 | 18.4 | 13.2 | 8
– | > 10000 | 406 | > 10000 | 68 | O=C(CN1CCOCC1)Nc1cc2cc(-c3ccnnc3)ccc2cn1 [Compound 67, 2-morpholino-N-(6-(pyridazin-4-yl)isoquinolin-3-yl)acetamide] | 1030 | 26.5 | – | 6.3
– | > 10000 | 750 | > 10000 | 283 | O=C(Nc1cc2cc(-c3cnccn3)ccc2cn1)[C@H]1C[C@H](N2CCOCC2)C1 [Compound 69, trans-3-Morpholino-N-(6-(pyrazin-2-yl)isoquinolin-3-yl)cyclobutane-1-carboxamide] | 6730 | 9 | – | 4.4
– | > 10000 | 629 | > 10000 | 1020 | O=C(Nc1cc2cc(-c3cnccn3)ccc2cn1)[C@H]1CC[C@H](N2CCOCC2)CC1 [Compound 71, trans-4-Morpholino-N-(6-(pyrazin-2-yl)isoquinolin-3-yl)cyclohexane-1-carboxamide] | > 10000 | 32.1 | 43.4 | 11
1070 | > 10000 | 280 | > 10000 | – | O=C(Nc1cc2cc(-c3cnccn3)ccc2cn1)C1CCN(CCF)CC1 [Compound 77, 1-(2-Fluoroethyl)-N-(6-(pyrazin-2-yl)isoquinolin-3-yl)piperidine-4-carboxamide] | 4760 | 36.4 | – | 9.6
1250 | > 10000 | 157 | > 10000 | – | O=C(CN1CCOCC1)Nc1cc2cc(-c3cccnc3)c(F)cc2cn1 [Compound 144, N-(7-Fluoro-6-(pyridin-3-yl)isoquinolin-3-yl)-2-morpholinoacetamide] | 4600 | 23 | – | 9.4
